These results are taken from patent publication US10703756B2, “Pyrrolo[2,3-D]pyrimidinyl, pyrrolo[2,3-B]pyrazinyl, pyrrolo[2,3-B]pyridinyl acrylamides and epoxides thereof” (Pfizer Inc., priority 2015, dated 2020).

Molecules are shown by their SMILES. Where only a bound is given, the exact number is not on record here.

The subject of assay [1] is IL-15 induced P-STAT5 in human PBMC. Briefly: PBMC IL-15 Induced P-STAT5. The assay is classed as cell-based. The conditions noted are these: human PBMC, IL-15 final 41 ng/mL; read-out: PBMC IL15_pSTAT5_IC50. The procedure:
PBMC IL-15 Induced P-STAT5
Test compounds were serially diluted in DMSO, with further dilution of the compounds in RPMI 1640 medium (Invitrogen #72400) supplemented with 10 mM HEPES, pH 7.4, 1 mM sodium pyruvate, and Penicillin/Streptomycin (by adding 5 μL compound/DMSO in 120 μL Dulbecco's Phosphate-Buffered Saline (D-PBS, 1×), [DMSO]=4%, and mixing the solution by repeated pipetting, 6×). IL-15 was diluted to the concentration at 820 ng/mL in RPMI 1640 medium.
Frozen human PBMC (200-250 million cells/vial) was thawed at 37° C. The cells were transferred to 10 mL warm medium in a 50-mL conical tube, and centrifuged at 1,200 RPM at room temperature for 5 min. The supernatant was aspirated. Cells were suspended in 3 mL warm human plasma and incubated at 37° C. in a tissue culture incubator for 1.5 to 2 h. After adding 47 ml D-PBS (37° C.) to PBMC/FBS suspension, centrifuging at 1,200 RPM at room temperature for 5 min, and aspirating the supernatant, the cells were resuspended in 20 mL warm RPMI medium. Ninety μL of cell suspension were pipetted per well in a 96-well, deep-well, V-bottom plate, and the plate was incubated at 37° C. for 30 min. Five μL of compound were transferred to each well (final 0.2% DMSO), vortex gently and incubate at 37° C. for 15 min; 5 μL 4% DMSO/PBS were added to the control wells. After adding 5 μL 820 ng/mL of human IL-15 (final 41 ng/mL) to each well (5 μL PBS to the control wells), vortexing gently and incubating at 37° C. for 15 min, followed by 0.3 mL 1% paraformaldehyde/PBS (37° C.) to each well, and incubating the plate at room temperature for 15 min, the plates were centrifuged at 1,200 RPM (Beckman GS-6R or Sorvall Legend) at room temperature for 5 min, and the supernatant was aspirated using a 8-channel or 12-channel manifold. After adding 0.8 mL staining buffer per well, the plates were centrifuged at 1,200 RPM (Beckman GS-6R or Sorvall Legend) at room temperature for 5 min, and again the supernatant was aspirated using a 8-channel or 12-channel manifold. The plate was vortexed, and 0.35 mL 90% methanol/10% H2O (−20° C.) was added per well, and the plate incubated on ice for 20 min. After again adding 0.8 mL staining buffer per well, the plates were centrifuged at 1,200 RPM (Beckman GS-6R or Sorvall Legend) at room temperature for 5 min, and again the supernatant was aspirated using a 8-channel or 12-channel manifold, and then 0.8 mL Staining buffer was added per well. After once again adding 0.8 mL staining buffer per well, the plates were centrifuged at 1,200 RPM (Beckman GS-6R or Sorvall Legend) at room temperature for 5 min, and again the supernatant was aspirated using a 8-channel or 12-channel manifold. Then the plate was vortexed, and 250 μL/well of Alexa Fluor® 647 conjugated anti-STAT5 antibody ([…]; […]) was added, and the plate was incubated at 4° C. overnight in the dark. Samples of 250 μL/well were transferred to a 96-well U-bottom plate, and the FACS analysis was performed gating on total lymphocytes. Samples were analyzed using a BD Calibur™ or BD FACSCanto™ flow cytometer equipped with the BD High Throughput Sampler.

Assay [2] has as its target T1, JAK3 enzyme (Homo sapiens, UniProt P52333).
T1 sequence (P52333 1-1124): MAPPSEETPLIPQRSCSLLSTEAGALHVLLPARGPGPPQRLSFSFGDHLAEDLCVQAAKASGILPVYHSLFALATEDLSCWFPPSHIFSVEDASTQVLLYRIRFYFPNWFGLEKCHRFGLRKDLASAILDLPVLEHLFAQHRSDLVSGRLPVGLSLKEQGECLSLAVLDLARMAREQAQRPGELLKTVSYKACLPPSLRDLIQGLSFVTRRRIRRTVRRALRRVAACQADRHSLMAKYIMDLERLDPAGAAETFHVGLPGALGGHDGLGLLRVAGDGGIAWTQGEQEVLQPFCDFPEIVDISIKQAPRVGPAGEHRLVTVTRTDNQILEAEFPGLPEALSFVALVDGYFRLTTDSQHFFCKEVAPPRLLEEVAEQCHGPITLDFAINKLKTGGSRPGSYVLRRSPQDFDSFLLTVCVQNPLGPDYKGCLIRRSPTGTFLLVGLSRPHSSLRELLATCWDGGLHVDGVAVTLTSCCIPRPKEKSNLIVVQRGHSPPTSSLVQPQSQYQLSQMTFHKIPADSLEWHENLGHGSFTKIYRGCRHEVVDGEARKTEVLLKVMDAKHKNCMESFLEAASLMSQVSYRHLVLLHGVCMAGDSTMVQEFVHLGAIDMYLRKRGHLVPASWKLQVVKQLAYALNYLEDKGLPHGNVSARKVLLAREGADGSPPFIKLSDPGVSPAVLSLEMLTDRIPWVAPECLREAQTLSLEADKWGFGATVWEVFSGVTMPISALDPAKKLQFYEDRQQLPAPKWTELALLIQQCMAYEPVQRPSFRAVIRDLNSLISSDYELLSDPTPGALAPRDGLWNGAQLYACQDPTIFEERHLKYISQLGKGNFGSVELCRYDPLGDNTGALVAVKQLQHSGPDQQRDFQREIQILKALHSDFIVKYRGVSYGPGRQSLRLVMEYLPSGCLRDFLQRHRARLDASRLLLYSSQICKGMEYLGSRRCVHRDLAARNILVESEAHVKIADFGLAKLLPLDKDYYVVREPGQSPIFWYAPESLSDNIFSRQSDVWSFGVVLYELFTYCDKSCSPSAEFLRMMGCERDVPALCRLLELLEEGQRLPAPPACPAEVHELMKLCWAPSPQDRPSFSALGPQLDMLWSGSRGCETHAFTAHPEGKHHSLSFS
Put plainly: JAK Caliper Enzyme Assay at 1 mM ATP. The assay is classed as biochemical. An outline of the steps:
(§1)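 Test compounds were diluted in DMSO as an 11-point half-log series from a 600 μM top concentration (DMSO series, not final assay level). Enzyme amount and incubation time were set per enzyme prep to reach 20%-30% phosphorylation. Phosphorylated and unphosphorylated peptide were resolved by microfluidic separation.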

Assay [3] concerns the target T1, JAK3 enzyme. Briefly: JAK Caliper Enzyme Assay at 4 μM ATP. Type of assay: biochemical. A digest of the protocol: as §1

Consider `C=CC(=O)N1C[C@H](Nc2cnc3[nH]cc(C(=O)NCCOC)c3n2)[C@](C)(C#N)C1` [Example 245, 2-{[(3R,4R)-1-acryloyl-4-cyano-4-methylpyrrolidin-3-yl]amino}-N-(2-methoxyethyl)-5H-pyrrolo[2,3-b]pyrazine-7-carboxamide], for which the IC50 is above 10000 nM in assay [1], 297 nM in assay [2] and 1.77 nM in assay [3].

Turning to `C=CC(=O)N1CCC(C)(Nc2cnc3[nH]cc(C(=O)NCC(C)CC(F)(F)F)c3n2)CC1` (racemic) [Example 270, Racemic-2-[(1-acryloyl-4-methylpiperidin-4-yl)amino]-N-(4,4,4-trifluoro-2-methylbutyl)-5H-pyrrolo[2,3-b]pyrazine-7-carboxamide], the results for the IC50 in assay [1], in assay [2] and in assay [3] were 670 nM, 63 nM and 0.526 nM, respectively.

On to `C=CC(=O)N1C[C@@H](CO)C[C@@H](Nc2ncnc3[nH]ccc23)C1` (racemic) [Example 97, racemic-1-((3R,5S)-3-((7H-pyrrolo[2,3-d]pyrimidin-4-yl)amino)-5-(hydroxymethyl)piperidin-1-yl)prop-2-en-1-one], for which the IC50 in assay [1] came to 1060 nM; in assay [2] it was 187 nM; in assay [3] it was 1.71 nM.

As for `C=CC(=O)N1CC[C@@H](Nc2cnc3[nH]cc(C(=O)NCC4CC(F)(F)C4)c3n2)[C@@H](OC)C1` [Example 309, 2-{[(3S,4R)-1-acryloyl-3-methoxypiperidin-4-yl]amino}-N-[(3,3-difluorocyclobutyl)methyl]-5H-pyrrolo[2,3-b]pyrazine-7-carboxamide], the IC50 in assay [1] was 526 nM; in assay [2], 59 nM; in assay [3], 0.898 nM.

For `C=CC(=O)N1CC[C@@H](Nc2cnc3[nH]cc(C(=O)NCC(C)(C)C)c3n2)[C@@H](OC)C1` [Example 300, 2-{[(3S,4R)-1-acryloyl-3-methoxypiperidin-4-yl]amino}-N-(2,2-dimethylpropyl)-5H-pyrrolo[2,3-b]pyrazine-7-carboxamide], the IC50 in assay [1] is 700 nM; in assay [2], 92 nM; in assay [3], 0.69 nM.

Consider `C=CC(=O)N1CC[C@H](Nc2cnc3[nH]cc(C(=O)NCC)c3n2)C[C@@H]1C` (racemic) [Example 349, 2-(((2S,4S)-1-acryloyl-2-methylpiperidin-4-yl)amino)-N-ethyl-5H-pyrrolo[2,3-b]pyrazine-7-carboxamide], for which the IC50 in assay [1] was found to be 2930 nM; in assay [2], 367 nM; in assay [3] it was 2.12 nM.

In the case of `C=CC(=O)N1CCC(Nc2cnc3[nH]cc(C(=O)NCc4nc(C)cc(C(F)(F)F)n4)c3n2)CC1` [Example 171, 2-[(1-acryloylpiperidin-4-yl)amino]-N-{[4-methyl-6-(trifluoromethyl)pyrimidin-2-yl]methyl}-5H-pyrrolo[2,3-b]pyrazine-7-carboxamide], the results for the IC50 in assay [1], in assay [2] and in assay [3] were 947 nM, 55 nM and 0.928 nM, respectively.

On to `C=CC(=O)N1CC[C@H](Oc2cnc3[nH]cc(C(=O)NCC)c3n2)[C@@H](C)C1` (single isomer, unassigned) [Example 48], for which the figures for the IC50 in assay [1], in assay [2] and in assay [3] were 6690 nM, 3060 nM and 49.1 nM, respectively.

Consider `C=CC(=O)N1CCN(c2cnc3[nH]cc(C(=O)NCC)c3n2)CC1(C)C` [Example 307, 2-(4-acryloyl-3,3-dimethylpiperazin-1-yl)-N-ethyl-5H-pyrrolo[2,3-b]pyrazine-7-carboxamide], for which the IC50 is 2130 nM in assay [1], 1080 nM in assay [2] and 9.82 nM in assay [3].

As for `C=CC(=O)N(C)C1CN(c2cnc3[nH]cc(C(=O)NCC)c3n2)C1` [Example 59, 2-{3-[acryloyl(methyl)amino]azetidin-1-yl}-N-ethyl-5H-pyrrolo[2,3-b]pyrazine-7-carboxamide], the IC50 in assay [1] was determined as 4870 nM; in assay [2], 1200 nM; in assay [3], 6.26 nM.

In the case of `C=CC(=O)N1CCN(c2cnc3[nH]cc(C(=O)NC(CC)(CC)CO)c3n2)CC1(C)C` [Example 163, 2-(4-acryloyl-3,3-dimethylpiperazin-1-yl)-N-[3-(hydroxymethyl)pentan-3-yl] 5H-pyrrolo[2,3-b]pyrazine-7-carboxamide], the IC50 was determined as 409 nM in assay [1], 160 nM in assay [2] and 1.24 nM in assay [3].

For the compound `C=CC(=O)N1CCC(Oc2cnc3[nH]cc(C(=O)N[C@@H](C(C)C)[C@H](O)C(F)(F)F)c3n2)CC1` [Example 217, 2-[(1-acryloylpiperidin-4-yl)Oxy]-N-[(2S,3S)-1,1,1-trifluoro-2-hydroxy-4-methylpentan-3-yl]-5H-pyrrolo[2,3-b]pyrazine-7-carboxamide], the figures for the IC50 in assay [1], in assay [2] and in assay [3] were 2090 nM, 272 nM and 1.97 nM, respectively.

On to `C=CC(=O)N1CCC(Nc2cnc3[nH]cc(C(=O)NCc4ccc(CC)c(C)n4)c3n2)CC1` [Example 184, 2-[(1-acryloylpiperidin-4-yl)amino]-N-[(5-ethyl-6-methylpyridin-2-yl)methyl]-5H-pyrrolo[2,3-b]pyrazine-7-carboxamide], for which the IC50 in assay [1] amounted to 1190 nM; in assay [2], 68 nM; in assay [3], 1.39 nM.

On to `C=CC(=O)N1CC[C@@H](Nc2cnc3[nH]cc(C(=O)NCC)c3n2)[C@H](OC)C1` (single isomer, unassigned) [Example 26], for which the IC50 in assay [1] was 1930 nM; in assay [2], 99 nM; in assay [3], 1.65 nM.

`C=CC(=O)N1CCC(C)(Nc2cnc3[nH]cc(C(=O)NCC)c3n2)CC1` [Example 281, 2-[(1-acryloyl-4-methylpiperidin-4-yl)amino]-N-ethyl-5H-pyrrolo[2,3-b]pyrazine-7-carboxamide]: the values for the IC50 in assay [1], in assay [2] and in assay [3] were 1220 nM, 73 nM and 1.02 nM, respectively.
